For 15 molecules, TGI results are on record in PubChem BioAssay (NCI).

Test systems include IGROV1 ovarian; CAKI-1 renal; SK-MEL-2 melanoma; BT-549 breast; SK-MEL-28 melanoma; UACC-62 melanoma; MALME-3M melanoma; MDA-MB-435; NCI-H522 lung; HL-60(TB) leukemia.
Common to all, as to experiment: growth of human tumour cells (NCI), 48 h

SMILES strings stand for the structures.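 Test compounds were applied to cells in 96-well plates for 48 hours at 5 doses. TGI: concentration producing complete growth inhibition.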

For `CCN(CC)CCC(=O)c1ccc(Oc2ccc(F)cc2)cc1`, the TGI in the experiment with IGROV1 ovarian was 36 µM; with CAKI-1 renal, 30.9 µM; in the experiment with SK-MEL-2 melanoma it was over 100 µM; with BT-549 breast, 32.8 µM; with SK-MEL-28 melanoma, 30.2 µM; in the experiment on UACC-62 melanoma, 31.9 µM. Also, the TGI in the experiment on MALME-3M melanoma is 34.9 µM; in the experiment with MDA-MB-435, 32.3 µM.
`Cc1ncc([N+](=O)[O-])n1CCNC(=O)CCCCCn1ccnc1[N+](=O)[O-]`: the TGI with IGROV1 ovarian, in the experiment with CAKI-1 renal, in the experiment with SK-MEL-2 melanoma, in the experiment on BT-549 breast, with NCI-H522 lung and in the experiment with UACC-62 melanoma was over 100 µM in each case. The TGI in the experiment with MALME-3M melanoma, in the experiment with HL-60(TB) leukemia and in the experiment on MDA-MB-435 was over 100 µM in each case.
Consider `COc1ccc2c(c1)-c1[nH]c3ccccc3c1CC2`, for which the TGI amounted to 18.8 µM in the experiment with IGROV1 ovarian; 29.4 µM with CAKI-1 renal; 29.4 µM in the experiment with SK-MEL-2 melanoma; 31.3 µM in the experiment on BT-549 breast; 20.3 µM in the experiment with NCI-H522 lung; 32.1 µM in the experiment on SK-MEL-28 melanoma. Further, the results for the TGI in the experiment with UACC-62 melanoma, with MALME-3M melanoma and in the experiment with MDA-MB-435 were 29.4 µM, 25.6 µM and 31.7 µM, respectively.
For the molecule `CCCCNC(=S)Nc1nc(C(=O)NNC(=O)c2ccccc2)cs1`, the TGI in the experiment with IGROV1 ovarian was found to be 40.6 µM; in the experiment with CAKI-1 renal, 39 µM; with SK-MEL-2 melanoma, 35.9 µM; in the experiment on BT-549 breast it was 41.4 µM; in the experiment on NCI-H522 lung it was 43.7 µM; in the experiment with UACC-62 melanoma, 41.4 µM. Also, the results for the TGI with MALME-3M melanoma, in the experiment with HL-60(TB) leukemia and in the experiment with MDA-MB-435 were 38.8 µM, over 100 µM and 47.8 µM, respectively.
As for `CCOC(=O)CC[C@H](N)C(=O)N[C@H](Cc1ccc(N(CCCl)CCCl)cc1)C(=O)OCC`, the TGI was 9.37 µM with IGROV1 ovarian; 4.03 µM in the experiment on CAKI-1 renal; over 28.4 µM in the experiment with SK-MEL-2 melanoma; over 38 µM in the experiment on BT-549 breast; 6.76 µM in the experiment on NCI-H522 lung; over 60.7 µM in the experiment with SK-MEL-28 melanoma. The TGI with MALME-3M melanoma was 13.9 µM; in the experiment with HL-60(TB) leukemia, 38.9 µM; in the experiment with MDA-MB-435 it was over 47.7 µM.
Regarding `Cc1nc2c(=O)[nH]c3ccc(Cl)cc3c2o1`, the TGI in the experiment with IGROV1 ovarian, in the experiment on CAKI-1 renal, with SK-MEL-2 melanoma, with BT-549 breast, in the experiment with NCI-H522 lung and in the experiment on UACC-62 melanoma was over 100 µM throughout. Also, the TGI in the experiment on MALME-3M melanoma and with MDA-MB-435 was over 100 µM in each case.
As for `COCCNC1CCC2(SCCS2)c2[nH]c3ccccc3c21` (centres undefined), the TGI in the experiment on IGROV1 ovarian is over 100 µM; with CAKI-1 renal, over 100 µM; in the experiment with SK-MEL-2 melanoma, over 100 µM; in the experiment with BT-549 breast, 38 µM; in the experiment on NCI-H522 lung it was over 100 µM; in the experiment with SK-MEL-28 melanoma, over 100 µM. For the same molecule, the TGI worked out at 45.8 µM in the experiment with HL-60(TB) leukemia and 62.1 µM with MDA-MB-435.
For the molecule `O=P1(c2ccccc2)C2=CCC=CC2C(c2ccccc2)N1Cc1ccccc1` (centres undefined), the TGI in the experiment with IGROV1 ovarian came out at 32.9 µM; in the experiment with CAKI-1 renal, 27 µM; with SK-MEL-2 melanoma, 29.9 µM; with BT-549 breast, 31.6 µM; in the experiment with NCI-H522 lung, 24.6 µM; with UACC-62 melanoma, 21.7 µM. In addition, the TGI was 32.9 µM in the experiment with MALME-3M melanoma, 39.9 µM with HL-60(TB) leukemia and 29.8 µM in the experiment on MDA-MB-435.
For `CCOP(=O)(OCC)C(C)(C)OC(=O)NC#N`, the TGI with IGROV1 ovarian, with CAKI-1 renal, with SK-MEL-2 melanoma, in the experiment with BT-549 breast, in the experiment with SK-MEL-28 melanoma and in the experiment with UACC-62 melanoma was over 100 µM in each case. Also, the TGI in the experiment on MALME-3M melanoma, in the experiment on HL-60(TB) leukemia and in the experiment on MDA-MB-435 was over 100 µM in each case.
As to `CC(/C=N/NC1=NCCCN1)=N\NC1=NCCCN1`, the TGI in the experiment with IGROV1 ovarian, in the experiment on CAKI-1 renal, in the experiment with BT-549 breast, in the experiment on NCI-H522 lung, in the experiment with SK-MEL-28 melanoma and in the experiment on UACC-62 melanoma was over 100 µM each time. Also, the TGI in the experiment on MALME-3M melanoma and with MDA-MB-435 was over 100 µM each time.
`CN1B(c2ccccc2)N(C)C(=O)N(C)C1=O`: the TGI with IGROV1 ovarian, in the experiment on CAKI-1 renal, in the experiment on SK-MEL-2 melanoma, in the experiment on BT-549 breast, in the experiment with UACC-62 melanoma and in the experiment on MALME-3M melanoma was over 100 µM throughout. Also, the TGI in the experiment with HL-60(TB) leukemia and with MDA-MB-435 was over 100 µM in each case.
As for `N=C(c1cccs1)C1(N2CCCCC2)CCCCC1`, the TGI in the experiment on IGROV1 ovarian worked out at 39.6 µM; in the experiment on CAKI-1 renal it was 32.9 µM; with SK-MEL-2 melanoma, 31.3 µM; in the experiment on BT-549 breast, 41.9 µM; with NCI-H522 lung it was 30.9 µM; in the experiment with UACC-62 melanoma it was 31 µM. Further, the results for the TGI in the experiment on MALME-3M melanoma, in the experiment on HL-60(TB) leukemia and in the experiment with MDA-MB-435 were 30.2 µM, 33.6 µM and 37.8 µM, respectively.
`CC1=CC(=O)/C(=C/n2c(=S)[nH]c3ccccc32)C(=O)O1`: the TGI in the experiment with IGROV1 ovarian, in the experiment with CAKI-1 renal, in the experiment with SK-MEL-2 melanoma, in the experiment on BT-549 breast, in the experiment on NCI-H522 lung and with UACC-62 melanoma was over 100 µM in each case. In addition, the TGI in the experiment with HL-60(TB) leukemia and in the experiment with MDA-MB-435 was over 100 µM each time.
`CN1C(=O)N(C)C2(CCN(CCCCCCF)CC2)C1=O`: the TGI with IGROV1 ovarian, in the experiment on CAKI-1 renal, in the experiment with BT-549 breast, in the experiment with NCI-H522 lung, in the experiment with SK-MEL-28 melanoma and in the experiment on UACC-62 melanoma was over 100 µM each time. Further, the TGI is over 100 µM in the experiment on MALME-3M melanoma, over 100 µM with HL-60(TB) leukemia and 71.1 µM in the experiment with MDA-MB-435.
As to `O=C1c2cc([N+](=O)[O-])sc2C(=O)c2ccsc21`, the TGI in the experiment with IGROV1 ovarian worked out at 0.878 µM; with CAKI-1 renal it was 2.55 µM; with SK-MEL-2 melanoma, 3.11 µM; in the experiment on BT-549 breast, 1.27 µM; in the experiment on NCI-H522 lung it was 0.379 µM; in the experiment with SK-MEL-28 melanoma it was 0.555 µM. Further, the TGI with UACC-62 melanoma was 0.433 µM; with MALME-3M melanoma, 0.327 µM; in the experiment with MDA-MB-435, 0.334 µM.
